The record followed here is patent US7649013B2, “Methods of protecting against radiation injury” (priority 2003, dated 2010).

The structures appear in SMILES notation.

The test deals with C57BL/6J inbred strain female mice. Put plainly: Survival after 8 Gy whole body γ-irradiation, intraperitoneal dosing 4 hours before or after (Example 4). The following applies: 10 mg/kg 4 hr before Radiation 8 Gy. Format: in vivo. As to the method: β-lapachone is prepared at 10 mg/ml in 40% hydroxypropyl-beta-cyclodextrin (HPBCD).
C57BL/6J inbred strain female mice (4-5 weeks old) are used. Animals are maintained in a climate-controlled animal facility.
Animals are injected with different concentrations of β-lapachone (20 and 40 mg/kg body weight) intraperitoneally 4 hours before or after irradiation.
Whole body irradiation of animals with 8 Gy of γ-rays is carried out in air at room temperature in a gamma chamber (Gammacell 40 Exactor), at a dose-rate of 1.05 Gy/min. This radiation dose is within the range of equivalent human exposures predicted in many scenarios of radiologic or nuclear terrorist attack.
Mice are divided into the following groups (each Group comprises four mice receiving identical treatment):
Group II: Mice are injected with β-lapachone 20 mg/kg body weight 4 hours before radiation.
Group III: Mice are injected with β-lapachone 40 mg/kg body weight 4 hours before radiation.
Group IV: Mice are injected with β-lapachone 20 mg/kg body weight 4 hours after radiation.
Group V: Mice are injected with β-lapachone 40 mg/kg body weight 4 hours after radiation.
Group VI: Mice are injected with amifostine 10 mg/kg body weight 4 hours before radiation.
Animals are irradiated with 8 Gy at 1.05 Gy/min dose-rate. After irradiation mice are returned to their cage and observed on a regular basis. Exposure to γ-rays causes lethality in animals. Importantly, treatment with β-lapachone, especially at a level of 40 mg/kg prior to irradiation, diminishes the death rate.

As to `NCCCNCCSP(=O)(O)O` [Amifostine, reference compound], the “Median survival time” value is listed as 12 days. Moreover, the “No. of animals surviving at 20 days post-irradiation” value (4 animals) is 0. The “Death rate (%)” value (20 days) is given as 100%. For the same compound, the “Median survival time in days” value (listed as amifostine) is listed as “little or no effect”.
